Like-named read-outs stand apart in the source and are kept apart here. Where no end group is shown, it is not given here.
Key:
Experiment in all cases: Direct-binding FRET assay
BACH1 = BACH1 (Homo sapiens, UniProt O14867); parameters: made in house; details: read-out: Kd
Method: (§1) The direct binding assay was performed manually in 384-well plates and is similar to a previously described assay. Wells were filled with 20 μL of 1 mM TCEP-HCl. A 4 μM stock of acceptor protein was made fresh in 1 mM TCEP-HCl, and 20 μL was titrated in 2-fold dilutions over the wells. […] The direct-binding FRET data were fit as previously described. Briefly, the Kd of the designed peptide homodimer was experimentally determined and used with previously determined target homodimer Kd values to determine the heterodimer Kd. The homodimer Kd values used for the human bZIPs were from; experiments done by […] et al. used the same protein constructs for the human bZIP proteins, the same buffer conditions, and the same assay. The fitting used a system of ordinary differential equations to describe the concentrations of homo and heterodimers formed by the donor (D) and acceptor (A) as a function of the heterodimer Kd. MATLAB was used to simulate the binding experiment for different Kd values, and the value that gave the best agreement between simulation and experiment was assigned. A minimum 15% change in the donor fluorescence upon titrating the acceptor peptide from 0 to 1000 nM was required for a fit to be attempted. If this minimum was not met, the interaction was classified as “NS” for no signal change. […] These interactions were marked “AS” to indicate anomalous signal. We attributed this to interactions between the peptides, the dyes and the walls of the assay plates at low concentrations. These curves could not be fit, given their unusual shapes at low concentrations of acceptor. For such curves, we removed the first five points and re-fit the data. […] One example of this is increasing concentrations of acceptor causing an increase in donor fluorescence.

BACH2 = BACH2 (Homo sapiens, UniProt Q9BYV9); parameters: made in house; details: read-out: Kd
Method: as §1

ATF6 = ATF6 (Homo sapiens, UniProt P18850); parameters: made in house; details: read-out: Kd
Method: as §1

MAF = MAF (Homo sapiens, UniProt O75444); parameters: made in house; details: mean or single, read-out: Kd
Method: as §1

MAFB = MAFB (Homo sapiens, UniProt Q9Y5Q3); parameters: made in house; details: mean or single, read-out: Kd
Method: as §1

NFE2L1 = NFE2L1 (Homo sapiens, UniProt Q14494); parameters: made in house; details: read-out: Kd
Method: as §1

BATF2 = target: T1, BATF2 (Homo sapiens, UniProt Q8N1L9); details: read-out: Kd
T1 construct: made in house
T1 sequence (Q8N1L9 17-80 limits assumed): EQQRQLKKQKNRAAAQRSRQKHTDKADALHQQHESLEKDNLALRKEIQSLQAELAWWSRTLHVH
Method in brief: (§2)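 First, wells held 1 mM TCEP-HCl; next, acceptor protein was serially diluted 2-fold across them; then donor fluorescence was fitted to simulated dimer equilibria to assign heterodimer Kd. Anomalous curves ("AS") were refitted after removing the first five points.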

CREB3 = target: T2, CREB3 (Homo sapiens, UniProt O43889); details: mean or single, read-out: Kd
T2 construct: made in house
T2 sequence (O43889 150-213 limits assumed): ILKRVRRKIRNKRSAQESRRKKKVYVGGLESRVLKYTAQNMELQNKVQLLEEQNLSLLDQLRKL
Method in brief: as §2

CREB3L1 = target: T3, CREB3L1 (Homo sapiens, UniProt Q96BA8); details: mean or single, read-out: Kd
T3 construct: made in house
T3 sequence (Q96BA8 290-353 limits assumed): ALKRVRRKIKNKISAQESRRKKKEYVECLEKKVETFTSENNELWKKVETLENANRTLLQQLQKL
Method in brief: as §2

CREB3L3 = target: T4, CREB3L3 (Homo sapiens, UniProt Q68CJ9); details: read-out: Kd
T4 construct: made in house
T4 sequence (Q68CJ9 243-306 limits assumed): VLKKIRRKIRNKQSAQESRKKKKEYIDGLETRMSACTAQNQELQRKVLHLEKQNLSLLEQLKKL
Method in brief: as §2

NFE2L2 = target: T5, NFE2L2 (Homo sapiens, UniProt Q16236); details: read-out: Kd
T5 construct: made in house
T5 sequence (Q16236 497-560 limits assumed): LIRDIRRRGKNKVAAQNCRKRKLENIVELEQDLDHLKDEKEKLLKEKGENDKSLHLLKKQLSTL
Method in brief: as §2

[1] = 4°C, C-terminal fluorescein design as donor, TAMRA target titrated
[2] = 4°C, C-terminal rhodamine design, mean or single
[3] = 23°C, C-terminal fluorescein design as donor, TAMRA target titrated
[4] = 23°C, C-terminal rhodamine design, mean or single
[5] = 23°C, N-terminal rhodamine design, repeat 1
[6] = 23°C, N-terminal rhodamine design, repeat 2
[7] = 37°C, C-terminal fluorescein design as donor, TAMRA target titrated
[8] = 37°C, C-terminal rhodamine design, mean or single
[9] = 37°C, N-terminal rhodamine design, mean or single
[10] = 37°C, N-terminal rhodamine design, repeat 1
[11] = 37°C, N-terminal rhodamine design, repeat 2
[12] = 4°C, N-terminal rhodamine design, mean or single
[13] = 23°C, N-terminal rhodamine design, mean or single
[14] = 4°C, C-terminal rhodamine design
[15] = 4°C, N-terminal rhodamine design
[16] = 23°C, C-terminal rhodamine design
[17] = 23°C, N-terminal rhodamine design
[18] = 37°C, C-terminal rhodamine design
[19] = 37°C, N-terminal rhodamine design

Sequence of BACH2 (Q9BYV9 646-709 limits assumed): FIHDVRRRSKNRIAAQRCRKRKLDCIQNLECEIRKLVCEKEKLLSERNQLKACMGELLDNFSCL
Sequence of BACH1 (O14867 557-620 limits assumed): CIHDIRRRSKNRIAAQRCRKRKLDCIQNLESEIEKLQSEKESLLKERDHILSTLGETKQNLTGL
Sequence of ATF6 (P18850 306-369 limits assumed): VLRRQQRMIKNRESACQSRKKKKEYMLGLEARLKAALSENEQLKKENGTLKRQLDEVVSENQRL
Sequence of NFE2L1 (Q14494 654-717 limits assumed): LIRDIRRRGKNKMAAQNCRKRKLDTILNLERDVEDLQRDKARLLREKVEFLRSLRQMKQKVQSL

Kd (BACH1; [1]): > 1000 nM | Kd (BACH1; [2]): > 5000 nM | Kd (BACH1; [3]): > 1000 nM | Kd (BACH1; [4]): > 1000 nM | Kd (BACH1; [5]): > 1000 nM | Kd (BACH1; [6]): > 5000 nM | Kd (BACH1; [7]): > 1000 nM | Kd (BACH1; [8]): > 1000 nM | Kd (BACH1; [9]): > 1000 nM | Kd (BACH1; [10]): > 1000 nM | Kd (BACH1; [11]): > 1000 nM | Kd (BACH2; [1]): > 1000 nM | Kd (BACH2; [2]): > 5000 nM | Kd (BACH2; [12]): > 1000 nM | Kd (BACH2; [3]): > 5000 nM | Kd (BACH2; [4]): > 1000 nM | Kd (BACH2; [13]): > 5000 nM | Kd (BACH2; [7]): > 1000 nM | Kd (BACH2; [8]): > 5000 nM | Kd (BACH2; [9]): > 1000 nM | Kd (ATF6; [1]): > 1000 nM | Kd (ATF6; [2]): > 1000 nM | Kd (ATF6; [12]): > 1000 nM | Kd (ATF6; [3]): > 1000 nM | Kd (ATF6; [4]): > 1000 nM | Kd (ATF6; [13]): > 1000 nM | Kd (ATF6; [7]): > 1000 nM | Kd (ATF6; [8]): > 1000 nM | Kd (ATF6; [9]): > 1000 nM | Kd (MAF; [14]): > 5000 nM | Kd (MAF; [15]): > 1000 nM | Kd (MAF; [16]): > 5000 nM | Kd (MAF; [17]): > 1000 nM | Kd (MAF; [18]): 460 nM | Kd (MAF; [19]): > 1000 nM | Kd (MAFB; [14]): > 5000 nM | Kd (MAFB; [15]): > 1000 nM | Kd (MAFB; [16]): > 5000 nM | Kd (MAFB; [17]): > 1000 nM | Kd (MAFB; [18]): 402 nM | Kd (MAFB; [19]): > 1000 nM | Kd (NFE2L1; [2]): > 5000 nM | Kd (NFE2L1; 4°C, N-terminal rhodamine design, repeat 1): > 1000 nM | Kd (NFE2L1; 4°C, N-terminal rhodamine design, repeat 2): > 1000 nM | Kd (NFE2L1; [4]): > 5000 nM | Kd (NFE2L1; [13]): > 1000 nM | Kd (NFE2L1; [5]): > 1000 nM | Kd (NFE2L1; [6]): > 1000 nM | Kd (NFE2L1; [8]): > 1000 nM | Kd (NFE2L1; [9]): > 1000 nM | Kd (NFE2L1; [10]): > 1000 nM | Kd (NFE2L1; [11]): > 1000 nM | Kd (BATF2; [1]): > 1000 nM | Kd (BATF2; [2]): > 1000 nM | Kd (BATF2; [12]): > 1000 nM | Kd (BATF2; [3]): > 1000 nM | Kd (BATF2; [4]): > 1000 nM | Kd (BATF2; [13]): > 1000 nM | Kd (BATF2; [7]): > 1000 nM | Kd (BATF2; [8]): > 1000 nM | Kd (BATF2; [9]): > 1000 nM | Kd (CREB3; [14]): > 1000 nM | Kd (CREB3; [15]): > 1000 nM | Kd (CREB3; [16]): > 1000 nM | Kd (CREB3; [17]): > 1000 nM | Kd (CREB3; [18]): > 5000 nM | Kd (CREB3; [19]): > 1000 nM | Kd (CREB3L1; [14]): > 5000 nM | Kd (CREB3L1; [15]): > 1000 nM | Kd (CREB3L1; [16]): < 200 nM | Kd (CREB3L1; [17]): > 1000 nM | Kd (CREB3L1; [18]): > 1000 nM | Kd (CREB3L1; [19]): > 1000 nM | Kd (CREB3L3; [1]): > 1000 nM | Kd (CREB3L3; [2]): > 5000 nM | Kd (CREB3L3; [12]): > 1000 nM | Kd (CREB3L3; [3]): > 1000 nM | Kd (CREB3L3; [4]): > 1000 nM | Kd (CREB3L3; [13]): > 1000 nM | Kd (CREB3L3; [7]): > 1000 nM | Kd (CREB3L3; [8]): > 1000 nM | Kd (CREB3L3; [9]): > 1000 nM | Kd (NFE2L2; [1]): > 5000 nM | Kd (NFE2L2; [12]): 47.9 nM | Kd (NFE2L2; [3]): > 1000 nM | Kd (NFE2L2; [4]): > 5000 nM | Kd (NFE2L2; 23°C, C-terminal rhodamine design, repeat 1): > 5000 nM | Kd (NFE2L2; 23°C, C-terminal rhodamine design, repeat 2): > 5000 nM | Kd (NFE2L2; 23°C, C-terminal rhodamine design, repeat 3): > 5000 nM | Kd (NFE2L2; [13]): > 1000 nM | Kd (NFE2L2; [7]): > 1000 nM | Kd (NFE2L2; 37°C, C-terminal rhodamine design, repeat 1): > 1000 nM | Kd (NFE2L2; 37°C, C-terminal rhodamine design, repeat 2): > 1000 nM | Kd (NFE2L2; 37°C, C-terminal rhodamine design, repeat 3): > 5000 nM | Kd (NFE2L2; [9]): > 1000 nM
Sequence: NQIKTLRTRLSKLRKDNLQLEKDIANLERKAKDLRAEKEQLEYEL [ATF4-d1]

Reference: publication PMC4335062, “Data-Driven Prediction and Design of bZIP Coiled-Coil Interactions” (PLoS Computational Biology, 2015)
